Numbered stars: 1 amine (or outer) side, 2 acyl side, 3 side chain; on linkers, the order of the positions; unused ones are H or OH. Bridge positions count the residues as written; N and C are the ends. Square brackets hold non-standard residues; d marks the D form. Peptide text beside a SMILES is read from it. * marks the point of attachment. Trp(1-CH2COOH) = N[C@@H](Cc1cn(CC(=O)O)c2ccccc12)C(=O)O; CH2CON(CH2CH2)2NCH2COOH = O=C(O)CN1CCN(C(=O)C*)CC1; Nle(6-morpholino) = N[C@@H](CCCCN1CCOCC1)C(=O)O; Phe(3-COOH) = N[C@@H](Cc1cccc(C(=O)O)c1)C(=O)O; NMePhe(3-OMe) = CN[C@@H](Cc1cccc(OC)c1)C(=O)O; NMePhe(3-Cl) = CN[C@@H](Cc1cccc(Cl)c1)C(=O)O; 3Pal(6-OMe) = COc1ccc(C[C@H](N)C(=O)O)cn1; 3Pal(6-NH2) = Nc1ccc(C[C@H](N)C(=O)O)cn1; X3 = Cc1ccc(C[C@H](N[*:1])C(=O)[*:2])cn1; NMe4Pal = CN[C@@H](Cc1ccncc1)C(=O)O; NMeY = CN[C@@H](Cc1ccc(O)cc1)C(=O)O; Nva(3-Et) = CCC(CC)[C@H](N)C(=O)O; PEG4 = NCCOCCOCCOCCOCCC(=O)O; Carboxymethyl = O=C(O)C*
What was measured:
[1] = target: T1, human transferrin receptor (hTfR) (Homo sapiens, UniProt P02786); experiment: SPR measurement under pH 6.0 conditions (Biacore T200, NTA chip, immobilized hTfR); assay type: binding; conditions: read-out: hTfR SPR pH6.0 KD
T1 sequence (P02786 whole entry): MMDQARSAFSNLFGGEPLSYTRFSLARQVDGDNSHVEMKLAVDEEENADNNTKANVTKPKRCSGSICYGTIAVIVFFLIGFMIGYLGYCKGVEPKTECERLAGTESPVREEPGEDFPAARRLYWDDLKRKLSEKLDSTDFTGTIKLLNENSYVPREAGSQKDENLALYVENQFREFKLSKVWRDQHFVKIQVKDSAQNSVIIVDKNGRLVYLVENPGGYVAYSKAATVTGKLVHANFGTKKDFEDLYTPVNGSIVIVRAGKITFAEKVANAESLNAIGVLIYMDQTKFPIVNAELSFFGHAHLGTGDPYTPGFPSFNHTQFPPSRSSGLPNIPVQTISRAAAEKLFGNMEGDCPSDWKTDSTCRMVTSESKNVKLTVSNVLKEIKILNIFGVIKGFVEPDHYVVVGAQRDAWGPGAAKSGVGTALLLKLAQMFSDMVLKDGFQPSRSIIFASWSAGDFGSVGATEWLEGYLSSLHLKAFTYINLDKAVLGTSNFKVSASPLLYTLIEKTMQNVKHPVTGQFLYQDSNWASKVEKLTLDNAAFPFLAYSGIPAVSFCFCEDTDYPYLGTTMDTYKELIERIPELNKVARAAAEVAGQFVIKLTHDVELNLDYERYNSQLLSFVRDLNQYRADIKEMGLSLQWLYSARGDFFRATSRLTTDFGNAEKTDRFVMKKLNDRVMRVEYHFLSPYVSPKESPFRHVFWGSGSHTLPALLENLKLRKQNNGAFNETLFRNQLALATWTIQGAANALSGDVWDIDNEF

[2] = target: T1, human transferrin receptor (hTfR); experiment: SPR measurement under pH 7.4 conditions (Biacore T200, CM3 chip, hTfR captured by His Tag antibody); assay type: binding; conditions: read-out: hTfR SPR pH7.4 KD
[3] = SPR, pH 6.0, peptide with the linker named in the table
[4] = SPR, pH 7.4, peptide with the linker named in the table

Row | SMILES | Kd ([1]; pH 6.0, single-cycle kinetics) | Kd ([2]; pH 7.4, single-cycle kinetics) | Kd [1, 3] | Kd [2, 4] | also measured
1 | CC[C@H](C)[C@@H]1NC(=O)[C@H](Cc2ccc(OCC(=O)N3CCN(CC(=O)O)CC3)cc2)NC(=O)[C@H](Cc2ccc(O)cc2)NC(=O)[C@H](CC(N)=O)NC(=O)[C@H](Cc2cn(CC(=O)O)c3ccccc23)NC(=O)[C@H](C(C)C)NC(=O)[C@H](Cc2cccc(Cl)c2)N(C)C(=O)[C@H](C(C)C)NC(=O)[C@H](C)NC(=O)CSC[C@@H](C(=O)NCCOCCOCCOCCOCCC(N)=O)NC(=O)[C@H](Cc2ccc(O)cc2)N(C)C(=O)[C@H](Cc2ccncc2)NC(=O)[C@H](CCCCN2CCOCC2)NC(=O)[C@H](CCC(N)=O)NC(=O)[C@H]([C@@H](C)CC)NC1=O [compound 25] | 57.9 nM | 3.35 nM |  |  | 
2 | CC[C@H](C)[C@@H]1NC(=O)[C@H](Cc2ccc(OCCNC(=O)N3CCN(CC(=O)O)CC3)cc2)NC(=O)[C@H](Cc2ccc(O)cc2)NC(=O)[C@H](CC(N)=O)NC(=O)[C@H](Cc2cn(CC(=O)O)c3ccccc23)NC(=O)[C@H](C(C)C)NC(=O)[C@H](Cc2cccc(Cl)c2)N(C)C(=O)[C@H](C(C)C)NC(=O)[C@H](C)NC(=O)CSC[C@@H](C(=O)NCCOCCOCCOCCOCCC(N)=O)NC(=O)[C@H](Cc2ccc(O)cc2)N(C)C(=O)[C@H](Cc2ccncc2)NC(=O)[C@H](CCCCN2CCOCC2)NC(=O)[C@H](CCC(=O)NCCOCCOCCOCCOCCOCCOCCOCCOC)NC(=O)[C@H]([C@@H](C)CC)NC1=O [compound 41] | 91.4 nM | 14.5 nM |  |  | 
3 | CCC(CC)[C@@H]1NC(=O)[C@H](Cc2ccc(OCC(=O)N3CCN(CC(=O)O)CC3)cc2)NC(=O)[C@H](Cc2ccc(N)nc2)NC(=O)[C@H](CC(N)=O)NC(=O)[C@H](Cc2cn(CC(=O)O)c3ccccc23)NC(=O)[C@H](C(C)C)NC(=O)[C@H](Cc2cccc(Cl)c2)N(C)C(=O)[C@H](C(C)C)NC(=O)[C@H](C)NC(=O)CSC[C@@H](C(=O)NCCOCCOCCOCCOCCC(N)=O)NC(=O)[C@H](Cc2ccc(O)cc2)N(C)C(=O)[C@H](Cc2cccc(C(=O)O)c2)NC(=O)[C@H](CCCCN2CCOCC2)NC(=O)[C@H](CCC(N)=O)NC(=O)[C@H]([C@@H](C)CC)NC1=O [compound 52] ({CH2CO}-AV[NMePhe(3-Cl)]V[Trp(1-CH2COOH)]N[3Pal(6-NH2)]Y(CH2CON(CH2CH2)2NCH2COOH)[Nva(3-Et)]IQ[Nle(6-morpholino)][Phe(3-COOH)][NMeY]C[PEG4]-NH2; thioether N-15) | 626 nM | 5820 nM |  |  | 
4 | CC[C@H](C)[C@@H]1NC(=O)[C@H](Cc2ccc(OCC(=O)N3CCN(CC(=O)O)CC3)cc2)NC(=O)[C@H](Cc2ccc(O)cc2)NC(=O)[C@H](CC(N)=O)NC(=O)[C@H](Cc2cn(CC(=O)O)c3ccccc23)NC(=O)[C@H](C(C)C)NC(=O)[C@H](Cc2cccc(Cl)c2)N(C)C(=O)[C@H](C(C)C)NC(=O)[C@H](C)NC(=O)CSC[C@@H](C(=O)NCCOCCOCCOCCOCCC(N)=O)NC(=O)[C@H](Cc2ccc(O)cc2)N(C)C(=O)[C@H](Cc2ccncc2)NC(=O)[C@H](CCCNC(=N)N)NC(=O)[C@H](CCCCNC(=O)N2CCN(CC(=O)O)CC2)NC(=O)[C@H]([C@@H](C)CC)NC1=O [compound 34] | 14.9 nM | 5.22 nM |  |  | 
5 | CCC(CC)[C@@H]1NC(=O)[C@H](Cc2ccc(OCC(=O)O)cc2)NC(=O)[C@H](Cc2ccc(O)cc2)NC(=O)[C@H](CC(N)=O)NC(=O)[C@H](Cc2cn(CC(=O)O)c3ccccc23)NC(=O)[C@H](C(C)C)NC(=O)[C@H](Cc2cccc(Cl)c2)N(C)C(=O)[C@H](C(C)C)NC(=O)[C@H](C)NC(=O)CSC[C@@H](C(=O)NCCOCCOCCOCCOCCC(N)=O)NC(=O)[C@H](Cc2cccc(OC)c2)N(C)C(=O)[C@H](Cc2cccc(C(=O)O)c2)NC(=O)[C@H](CCCNC(=N)N)NC(=O)[C@H](CCC(N)=O)NC(=O)[C@H]([C@@H](C)CC)NC1=O [compound 95] ({CH2CO}-AV[NMePhe(3-Cl)]V[Trp(1-CH2COOH)]NYY(Carboxymethyl)[Nva(3-Et)]IQR[Phe(3-COOH)][NMePhe(3-OMe)]C[PEG4]-NH2; thioether N-15) |  |  | 67.9 nM | 10.6 nM | 
6 | CCC(CC)[C@@H]1NC(=O)[C@H](Cc2ccc(OCC(=O)O)cc2)NC(=O)[C@H](Cc2ccc(O)cc2)NC(=O)[C@H](CC(N)=O)NC(=O)[C@H](Cc2cn(CC(=O)O)c3ccccc23)NC(=O)[C@H](C(C)C)NC(=O)[C@H](Cc2cccc(Cl)c2)N(C)C(=O)[C@H](C(C)C)NC(=O)[C@H](C)NC(=O)CSC[C@@H](C(=O)NCCOCCOCCOCCOCCC(N)=O)NC(=O)[C@H](Cc2ccncc2)N(C)C(=O)[C@H](Cc2cccc(C(=O)O)c2)NC(=O)[C@H](CCCNC(=N)N)NC(=O)[C@H](CCC(N)=O)NC(=O)[C@H]([C@@H](C)CC)NC1=O [compound 96] ({CH2CO}-AV[NMePhe(3-Cl)]V[Trp(1-CH2COOH)]NYY(Carboxymethyl)[Nva(3-Et)]IQR[Phe(3-COOH)][NMe4Pal]C[PEG4]-NH2; thioether N-15) |  |  | 91.9 nM | 18.2 nM | 
7 | CC[C@H](C)[C@@H]1NC(=O)[C@H](Cc2ccc(OCC(=O)NC[C@H](O)[C@@H](O)[C@H](O)[C@H](O)CO)cc2)NC(=O)[C@H](Cc2ccc(O)cc2)NC(=O)[C@H](CC(N)=O)NC(=O)[C@H](Cc2c[nH]c3ncccc23)NC(=O)[C@H](C(C)C)NC(=O)[C@H](Cc2cccc(Cl)c2)N(C)C(=O)[C@H](C(C)C)NC(=O)[C@H](C)NC(=O)CSC[C@@H](C(=O)NCCOCCOCCOCCOCCC(N)=O)NC(=O)[C@H](Cc2ccc(O)cc2)N(C)C(=O)[C@H](Cc2ccncc2)NC(=O)[C@H](CCCCN2CCOCC2)NC(=O)[C@H](CCC(N)=O)NC(=O)[C@H]([C@@H](C)CC)NC1=O [compound 29] | 11.1 nM | 2.17 nM |  |  | 
8 | CC[C@H](C)[C@@H]1NC(=O)[C@H](Cc2ccc(OC)cc2)NC(=O)[C@H](Cc2ccc(N)nc2)NC(=O)[C@H](CC(N)=O)NC(=O)[C@H](Cc2c[nH]c3ncccc23)NC(=O)[C@H](C(C)C)NC(=O)[C@H](Cc2cccc(Cl)c2)N(C)C(=O)[C@H](C(C)C)NC(=O)[C@H](C)NC(=O)CSC[C@@H](C(=O)NCC(=O)NCC(=O)NCC(=O)NCC(=O)N[C@@H](CO)C(=O)N[C@@H](CO)C(=O)N[C@@H](CCCCN=[N+]=[N-])C(N)=O)NC(=O)[C@H](Cc2ccc(O)cc2)N(C)C(=O)[C@H](Cc2ccncc2)NC(=O)[C@H](CCCCN2CCOCC2)NC(=O)[C@H](CCCCN2CCOCC2)NC(=O)[C@H]([C@@H](C)CC)NC1=O [compound 192] |  |  |  |  | Kd ([1]; SPR, pH 6.0, Table 1-3-2-2): 10.5 nM; Kd ([2]; SPR, pH 7.4, Table 1-3-2-2): 1.49 nM
9 | CC[C@H](C)[C@@H]1NC(=O)[C@H](Cc2ccc(OC)cc2)NC(=O)[C@H](Cc2ccc(N)nc2)NC(=O)[C@H](CC(N)=O)NC(=O)[C@H](Cc2cnc3ccccn23)NC(=O)[C@H](C(C)C)NC(=O)[C@H](Cc2cccc(Cl)c2)N(C)C(=O)[C@H](C(C)C)NC(=O)[C@H](C)NC(=O)CSC[C@@H](C(=O)NCC(=O)N[C@H](CCC(=O)O)C(=O)N[C@H](CCC(=O)O)C(=O)N[C@H](CCC(=O)O)C(=O)N[C@H](CO)C(=O)N[C@H](CO)C(=O)N[C@@H](CCCCN=[N+]=[N-])C(N)=O)NC(=O)[C@H](Cc2ccc(O)cc2)N(C)C(=O)[C@H](Cc2ccncc2)NC(=O)[C@H](CCCNC(=N)N)NC(=O)[C@H](CCCNC(=N)N)NC(=O)[C@H]([C@@H](C)CC)NC1=O [compound 185] |  |  |  |  | Kd ([1]; SPR, pH 6.0, Table 1-3-2-2): 381 nM; Kd ([2]; SPR, pH 7.4, Table 1-3-2-2): 28.7 nM

Continued, in another order:

Row | Kd ([1]; pH 6.0, single-cycle kinetics) | Kd ([2]; pH 7.4, single-cycle kinetics) | Kd [1, 3] | Kd [2, 4] | SMILES | also measured
10 |  |  | 28.1 nM | 3.57 nM | CC[C@H](C)[C@@H]1NC(=O)[C@H](Cc2ccc(OCC(=O)O)cc2)NC(=O)[C@H](Cc2ccc(N)nc2)NC(=O)[C@H](CC(N)=O)NC(=O)[C@H](Cc2c[nH]c3ccccc23)NC(=O)[C@H](C(C)C)NC(=O)[C@H](Cc2cccc(Cl)c2)N(C)C(=O)[C@H](C(C)C)NC(=O)[C@H](C)NC(=O)CSC[C@@H](C(=O)NCC(=O)N[C@@H](CCCCN=[N+]=[N-])C(N)=O)NC(=O)[C@H](Cc2ccc(O)cc2)N(C)C(=O)[C@H](Cc2cccc(C(=O)O)c2)NC(=O)[C@H](CCCNC(=N)N)NC(=O)[C@H](CCC(N)=O)NC(=O)[C@H]([C@@H](C)CC)NC1=O [compound 149] | 
11 |  |  | 66.7 nM | 8.63 nM | CCC(CC)[C@@H]1NC(=O)[C@H](Cc2ccc(OCC(=O)O)cc2)NC(=O)[C@H](Cc2ccc(O)cc2)NC(=O)[C@H](CC(N)=O)NC(=O)[C@H](Cc2cn(CC(=O)O)c3ccccc23)NC(=O)[C@H](C(C)C)NC(=O)[C@H](Cc2cccc(Cl)c2)N(C)C(=O)[C@H](C(C)C)NC(=O)[C@H](C)NC(=O)CSC[C@@H](C(=O)NCCOCCOCCOCCOCCC(N)=O)NC(=O)[C@H](Cc2ccc(O)cc2)N(C)C(=O)[C@H](Cc2ccc(OC)nc2)NC(=O)[C@H](CCCNC(=N)N)NC(=O)[C@H](CCC(N)=O)NC(=O)[C@H]([C@@H](C)CC)NC1=O [compound 101] ({CH2CO}-AV[NMePhe(3-Cl)]V[Trp(1-CH2COOH)]NYY(Carboxymethyl)[Nva(3-Et)]IQR[3Pal(6-OMe)][NMeY]C[PEG4]-NH2; thioether N-15) | 
12 |  |  | 17.4 nM | 3.56 nM | CC[C@H](C)[C@@H]1NC(=O)[C@H](Cc2ccc(OCC(=O)O)cc2)NC(=O)[C@H](Cc2ccc(O)cc2)NC(=O)[C@H](CC(N)=O)NC(=O)[C@H](Cc2c[nH]c3ncccc23)NC(=O)[C@H](C(C)C)NC(=O)[C@H](Cc2cccc(Cl)c2)N(C)C(=O)[C@H](C(C)C)NC(=O)[C@H](C)NC(=O)CSC[C@@H](C(=O)NCCOCCOCCOCCOCCC(N)=O)NC(=O)[C@H](Cc2ccc(O)cc2)N(C)C(=O)[C@H](Cc2cccc(C(=O)NCCOCCOCCOCCOCCC(=O)O)c2)NC(=O)[C@H](CCCNC(=N)N)NC(=O)[C@H](CCC(N)=O)NC(=O)[C@H]([C@@H](C)CC)NC1=O [compound 144] | 
13 |  |  | 113 nM | 12.7 nM | CCC(CC)[C@@H]1NC(=O)[C@H](Cc2ccc(OCC(=O)O)cc2)NC(=O)[C@H](Cc2ccc(O)cc2)NC(=O)[C@H](CC(N)=O)NC(=O)[C@H](Cc2cn(CC(=O)O)c3ccccc23)NC(=O)[C@H](C(C)C)NC(=O)[C@H](Cc2cccc(Cl)c2)N(C)C(=O)[C@H](C(C)C)NC(=O)[C@H](C)NC(=O)CSC[C@@H](C(=O)NCCOCCOCCOCCOCCC(N)=O)NC(=O)[C@H](Cc2ccc(O)cc2)N(C)C(=O)[C@H](Cc2ccc(C)nc2)NC(=O)[C@H](CCCNC(=N)N)NC(=O)[C@H](CCC(N)=O)NC(=O)[C@H]([C@@H](C)CC)NC1=O [compound 100] ({CH2CO}-AV[NMePhe(3-Cl)]V[Trp(1-CH2COOH)]NYY(Carboxymethyl)[Nva(3-Et)]IQR[X3][NMeY]C[PEG4]-NH2; thioether N-15) | 

Reference: EP4667483A1, “HUMAN TRANSFERRIN RECEPTOR-BINDING PEPTIDE” (JCR Pharmaceuticals Co., Ltd., priority 2023, dated 2024)
